{
  "source": "patent US5962463A",
  "about": "“Methods of stimulating non-amyloidogenic processing of the amyloid precursor protein” (Massachusetts Institute Of Technology, priority 1997, dated 1999)",
  "key": {"APP release": {"test_system": "APP release", "assay": "APP release and cell-associated APP in serotonin receptor transfected 3T3 cells (receptor subtype not stated)", "type": "cell-based, human"}, "[1]": {"conditions": "taken orally by an individual; cited from earlier work"}, "[2]": {"test_system": "human serotonin-1C surface receptor", "assay": "Phosphatidylinositol turnover in NIH 3T3 cells expressing the 5HT1C receptor", "type": "cell-based", "conditions": "NIH 3T3 cells expressing 5-HT1C, FIG. 2B", "source_text": "FIG. 2A is a graphic representation of concentration dependent APP^S release by NIH 3T3 cells transfected with and expressing the gene for the human serotonin-1C surface receptor in response to activation by dexnorfenfluramine. FIG. 2B is a graphic representation of phosphatidylinositol turnover in the same cells in response to activation by dexnorfenfluramine.\nIn this instance, the agent interacts with and stimulates the serotonin surface receptor directly. […] Additional evidence is provided by the observation that turnover of phosphatidylinositol is stimulated in these cells by dexnorfenfluramine (FIG. 2B)."}, "slices of rat brain": {"test_system": "slices of rat brain", "conditions": "100 μM, incubated in slices of rat brain; cited from earlier work"}, "[3]": {"target": "T1, human brain serotonin 5HT1C receptor (Homo sapiens, UniProt P28335)", "T1 sequence (P28335 33-458)": "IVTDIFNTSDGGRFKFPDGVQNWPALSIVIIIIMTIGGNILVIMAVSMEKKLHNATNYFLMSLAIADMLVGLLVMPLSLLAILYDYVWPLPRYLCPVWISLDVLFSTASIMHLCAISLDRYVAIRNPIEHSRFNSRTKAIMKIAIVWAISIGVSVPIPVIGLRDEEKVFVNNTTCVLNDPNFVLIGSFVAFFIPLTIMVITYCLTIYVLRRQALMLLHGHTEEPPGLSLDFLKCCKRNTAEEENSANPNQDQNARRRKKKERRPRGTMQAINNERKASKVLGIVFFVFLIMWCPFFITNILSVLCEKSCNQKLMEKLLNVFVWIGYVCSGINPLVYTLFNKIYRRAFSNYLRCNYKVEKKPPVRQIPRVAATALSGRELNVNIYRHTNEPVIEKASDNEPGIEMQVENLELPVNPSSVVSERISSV", "conditions": "for effect on receptor-activated APP release in response to dexnorfenfluramine: 5HT1C transfected cell lines, FIG. 3"}, "[4]": {"target": "human brain serotonin 5HT2 receptor (Homo sapiens, UniProt P28223)", "sequence (P28223 whole entry)": "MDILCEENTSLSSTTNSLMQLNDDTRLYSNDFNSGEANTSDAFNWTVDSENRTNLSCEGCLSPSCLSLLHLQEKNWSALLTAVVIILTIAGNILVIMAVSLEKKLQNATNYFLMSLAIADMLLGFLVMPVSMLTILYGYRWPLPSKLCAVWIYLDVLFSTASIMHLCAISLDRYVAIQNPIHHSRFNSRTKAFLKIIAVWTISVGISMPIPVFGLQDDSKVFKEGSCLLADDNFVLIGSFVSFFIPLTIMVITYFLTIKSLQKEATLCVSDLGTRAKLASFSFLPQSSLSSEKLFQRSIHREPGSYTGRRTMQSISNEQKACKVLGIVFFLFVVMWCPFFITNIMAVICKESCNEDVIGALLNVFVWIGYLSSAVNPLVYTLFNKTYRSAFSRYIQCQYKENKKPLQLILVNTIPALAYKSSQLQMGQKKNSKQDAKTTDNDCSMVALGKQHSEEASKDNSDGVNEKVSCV", "conditions": "for effect on receptor-activated APP release in response to serotonin: 5HT2 transfected cell lines, insert in FIG. 1C"}, "[5]": {"test_system": "nontransfected human 3T3 cells", "assay": "Basal release of APP fragments from wild-type (nontransfected) 3T3 cells", "type": "cell-based", "conditions": "wild-type cell lines, FIGS. 1A and 1C", "source_text": "Cultured human NIH 3T3 fibroblasts were utilized.\nMolecular weight standards were obtained from Amersham."}, "[6]": {"conditions": "stimulation with serotonin, Western blot"}, "[7]": {"conditions": "10 μM serotonin, 5HT2 transfected cells, FIG. 1D"}},
  "note": "Structures can show the parent of a compound that is named as a salt.",
  "data": [
    {"compound": "CNc1ccc2oc(C[C@H]3O[C@@]4(CC[C@H]3C)O[C@H]([C@H](C)C(=O)c3ccc[nH]3)[C@H](C)C[C@H]4C)nc2c1C(=O)O", "note": "[A23187]", "values": [
      {"measurement": "ability to mimic the receptor-mediated stimulation of basal APP release", "setting": "APP release; calcium ionophore, increased intracellular calcium alone", "value": "failure"}
    ]},
    {"compound": "CCN[C@@H](C)Cc1cccc(C(F)(F)F)c1", "note": "[dexfenfluramine]", "values": [
      {"measurement": "amounts of dexfenfluramine and its de-ethylated metabolite dexnorfenfluramine appearing in the brain", "setting": "[1]", "value": "roughly equal amounts"}
    ]},
    {"compound": "C[C@H](N)Cc1cccc(C(F)(F)F)c1", "note": "[dexnorfenfluramine, (+) 1-[3-(trifluoromethyl)-phenyl] propan-2-amine hydrochloride]", "values": [
      {"measurement": "turnover of phosphatidylinositol", "setting": "[2]", "value": "stimulated"},
      {"measurement": "increase in the release of serotonin", "setting": "slices of rat brain", "value": "6-7 fold"},
      {"measurement": "increase of basal APP release", "setting": "[3]; 5HT1C transfected cells, normalized to vehicle-treated controls", "value": 3, "unit": "fold"}
    ]},
    {"compound": "O=C(c1ccc(F)cc1)C1CCN(CCn2c(=O)[nH]c3ccccc3c2=O)CC1", "note": "[ketanserin]", "values": [
      {"measurement": "effect on receptor-activated APP release in response to serotonin", "setting": "[4]", "value": "blocked"},
      {"measurement": "effect on receptor-activated APP release in response to dexnorfenfluramine", "setting": "[3]", "value": "blocked"}
    ]},
    {"compound": "CN1CCN2c3ccccc3Cc3ccccc3C2C1", "note": "(centres unmarked) [mianserin]", "values": [
      {"measurement": "effect on receptor-activated APP release in response to dexnorfenfluramine", "setting": "[3]", "value": "blocked"}
    ]},
    {"compound": "Cc1nc2sccn2c(=O)c1CCN1CCC(=C(c2ccc(F)cc2)c2ccc(F)cc2)CC1", "note": "[ritanserin]", "values": [
      {"measurement": "effect on receptor-activated APP release in response to serotonin", "setting": "[4]", "value": "blocked"},
      {"measurement": "effect on receptor-activated APP release in response to dexnorfenfluramine", "setting": "[3]", "value": "blocked"}
    ]},
    {"compound": "NCCc1c[nH]c2ccc(O)cc12", "note": "[serotonin]", "values": [
      {"measurement": "128 kD APP derivative secreted into the culture medium", "setting": "APP release; [6]", "value": "increase"},
      {"measurement": "abundance of cell-associated 115 kD APP", "setting": "APP release; [6]", "value": "remained unaffected"},
      {"measurement": "abundance of cell-associated 141 kD APP", "setting": "APP release; [6]", "value": "decreased"},
      {"measurement": "time to half-maximal stimulation of APP release", "setting": "[4]; [7]", "value": "30 to 40", "unit": "min"},
      {"measurement": "time to maximum stimulation of APP release", "setting": "[4]; [7]", "value": "≤ 120", "unit": "min"},
      {"measurement": "stimulation of basal release of APP fragments", "setting": "[5]", "value": "not stimulated"}
    ]},
    {"compound": "CN[C@@H]1C[C@H]2O[C@@](C)([C@@H]1OC)n1c3ccccc3c3c4c(c5c6ccccc6n2c5c31)C(=O)NC4", "note": "[staurosporine]", "values": [
      {"measurement": "effect on the serotonin effect on APP release", "setting": "APP release; serotonin-stimulated transfected cells", "value": "inhibited"}
    ]}
  ]
}
